#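 Compound exposure: 48 hours, 5 concentrations, 96-well plates. GI50 = concentration required for 50% inhibition of growth.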 Activity calls are given as the source filed them. No stated cut-off is given here; in the data, active = GI50 up to about 1.1 µM and inactive = higher.
# Tests used:
# Experiment in all cases: NCI-60 cell line screen, 48 h
# 786-0 = system: 786-0
# A498 = system: A498
# A549 = system: A549
# ACHN = system: ACHN
# BT-549 = system: BT-549
# CAKI-1 = system: CAKI-1
# CCRF-CEM = system: CCRF-CEM
# COLO 205 = system: COLO 205
# DU-145 = system: DU-145
# EKVX = system: EKVX
# HCT-116 = system: HCT-116
# HCT-15 = system: HCT-15
# HL-60 = system: HL-60
# HOP-62 = system: HOP-62
# HT-29 = system: HT-29
# Hs-578T = system: Hs-578T
# IGROV-1 = system: IGROV-1
# K562 = system: K562
# KM12 = system: KM12
# LOX IMVI = system: LOX IMVI
# M14 = system: M14
# MCF7 = system: MCF7
# MDA-MB-231 = system: MDA-MB-231
# MDA-MB-435 = system: MDA-MB-435
# MDA-N = system: MDA-N
# MOLT-4 = system: MOLT-4
# Malme-3M = system: Malme-3M
# NCI-H226 = system: NCI-H226
# NCI-H23 = system: NCI-H23
# NCI-H460 = system: NCI-H460
# NCI-H522 = system: NCI-H522
# NCI/ADR-RES = system: NCI/ADR-RES
# OVCAR-3 = system: OVCAR-3
# OVCAR-4 = system: OVCAR-4
# OVCAR-5 = system: OVCAR-5
# OVCAR-8 = system: OVCAR-8
# PC-3 = system: PC-3
# RPMI-8226 = system: RPMI-8226
# RXF 393 = system: RXF 393
# SF-268 = system: SF-268
# SF-295 = system: SF-295
# SK-MEL-28 = system: SK-MEL-28
# SK-MEL-2 = system: SK-MEL-2
# SK-MEL-5 = system: SK-MEL-5
# SN12C = system: SN12C
# SNB-19 = system: SNB-19
# SW-620 = system: SW-620
# T47D = system: T47D
# TK-10 = system: TK-10
# U-251 = system: U-251
# UACC-257 = system: UACC-257
# UACC-62 = system: UACC-62
# UO-31 = system: UO-31
# HOP-92 = system: HOP-92
# SK-OV-3 = system: SK-OV-3
# SNB-75 = system: SNB-75
# SR = system: SR
# HCC 2998 = system: HCC 2998
# SF-539 = system: SF-539
structure (smiles),measurement,setting,value
Cc1ccc2c(=O)c(-c3nnc(NC4CCCCC4)s3)c[nH]c2n1,GI50,786-0,> 100 µM (inactive)
same,GI50,A498,> 100 µM (inactive)
same,GI50,A549,> 100 µM (inactive)
same,GI50,ACHN,> 100 µM (inactive)
same,GI50,BT-549,> 100 µM (inactive)
same,GI50,CAKI-1,> 100 µM (inactive)
same,GI50,CCRF-CEM,> 100 µM (inactive)
same,GI50,COLO 205,> 100 µM (inactive)
same,GI50,DU-145,> 100 µM (inactive)
same,GI50,EKVX,> 100 µM (inactive)
same,GI50,HCT-116,> 100 µM (inactive)
same,GI50,HCT-15,> 100 µM
same,GI50,HL-60,> 100 µM (inactive)
same,GI50,HOP-62,> 100 µM (inactive)
same,GI50,HT-29,> 100 µM (inactive)
same,GI50,Hs-578T,> 100 µM (inactive)
same,GI50,IGROV-1,> 100 µM (inactive)
same,GI50,K562,> 100 µM (inactive)
same,GI50,KM12,> 100 µM (inactive)
same,GI50,LOX IMVI,> 100 µM (inactive)
same,GI50,M14,> 100 µM (inactive)
same,GI50,MCF7,> 100 µM (inactive)
same,GI50,MDA-MB-231,> 100 µM (inactive)
same,GI50,MDA-MB-435,> 100 µM (inactive)
same,GI50,MDA-N,81.7 µM (inactive)
same,GI50,MOLT-4,61 µM (inactive)
same,GI50,Malme-3M,> 100 µM (inactive)
same,GI50,NCI-H226,> 100 µM (inactive)
same,GI50,NCI-H23,> 100 µM (inactive)
same,GI50,NCI-H460,> 100 µM (inactive)
same,GI50,NCI-H522,> 100 µM (inactive)
same,GI50,NCI/ADR-RES,> 100 µM (inactive)
same,GI50,OVCAR-3,> 100 µM (inactive)
same,GI50,OVCAR-4,> 100 µM (inactive)
same,GI50,OVCAR-5,> 100 µM (inactive)
same,GI50,OVCAR-8,> 100 µM (inactive)
same,GI50,PC-3,> 100 µM (inactive)
same,GI50,RPMI-8226,> 100 µM (inactive)
same,GI50,RXF 393,> 100 µM (inactive)
same,GI50,SF-268,> 100 µM (inactive)
same,GI50,SF-295,81.7 µM (inactive)
same,GI50,SK-MEL-28,> 100 µM (inactive)
same,GI50,SK-MEL-2,> 100 µM (inactive)
same,GI50,SK-MEL-5,40.9 µM (inactive)
same,GI50,SN12C,> 100 µM (inactive)
same,GI50,SNB-19,> 100 µM (inactive)
same,GI50,SW-620,> 100 µM (inactive)
same,GI50,T47D,50 µM (inactive)
same,GI50,TK-10,> 100 µM (inactive)
same,GI50,U-251,> 100 µM (inactive)
same,GI50,UACC-257,> 100 µM (inactive)
same,GI50,UACC-62,> 100 µM (inactive)
same,GI50,UO-31,> 100 µM (inactive)
COc1cc(C2c3cc4c(cc3C3OC[C@@H]2C3CO)OCO4)cc(OC)c1OC (stereo not given in full),GI50,786-0,43.1 µM (inactive)
same,GI50,A498,42 µM (inactive)
same,GI50,A549,44.7 µM (inactive)
same,GI50,ACHN,80.4 µM (inactive)
same,GI50,BT-549,29.9 µM (inactive)
same,GI50,CAKI-1,78.7 µM (inactive)
same,GI50,CCRF-CEM,23.4 µM (inactive)
same,GI50,COLO 205,18.4 µM (inactive)
same,GI50,EKVX,41.2 µM (inactive)
same,GI50,HCT-15,23.3 µM
same,GI50,HL-60,2.66 µM (inactive)
same,GI50,HOP-92,> 100 µM (inactive)
same,GI50,HT-29,28.4 µM (inactive)
same,GI50,Hs-578T,34.4 µM (inactive)
same,GI50,IGROV-1,43.1 µM (inactive)
same,GI50,K562,24.9 µM (inactive)
same,GI50,KM12,23 µM (inactive)
same,GI50,LOX IMVI,31.2 µM (inactive)
same,GI50,M14,31.3 µM (inactive)
same,GI50,MCF7,35.2 µM (inactive)
same,GI50,MDA-MB-231,38.1 µM (inactive)
same,GI50,MDA-MB-435,6.81 µM (inactive)
same,GI50,MDA-N,8.28 µM (inactive)
same,GI50,MOLT-4,33.1 µM (inactive)
same,GI50,Malme-3M,67.6 µM (inactive)
same,GI50,NCI-H226,20.2 µM (inactive)
same,GI50,NCI-H460,20.3 µM (inactive)
same,GI50,NCI-H522,23 µM (inactive)
same,GI50,NCI/ADR-RES,20.1 µM (inactive)
same,GI50,OVCAR-4,71.1 µM (inactive)
same,GI50,OVCAR-5,60.5 µM (inactive)
same,GI50,OVCAR-8,40.7 µM (inactive)
same,GI50,PC-3,49.3 µM (inactive)
same,GI50,RPMI-8226,38.6 µM (inactive)
same,GI50,RXF 393,37.6 µM (inactive)
same,GI50,SF-268,31.3 µM (inactive)
same,GI50,SF-295,28.8 µM (inactive)
same,GI50,SK-MEL-28,> 100 µM (inactive)
same,GI50,SK-MEL-2,40.2 µM (inactive)
same,GI50,SK-MEL-5,11.5 µM (inactive)
same,GI50,SK-OV-3,54.2 µM (inactive)
same,GI50,SNB-19,57.3 µM (inactive)
same,GI50,SNB-75,25.6 µM (inactive)
same,GI50,SR,13.3 µM (inactive)
same,GI50,SW-620,34 µM (inactive)
same,GI50,T47D,> 100 µM (inactive)
same,GI50,TK-10,37.5 µM (inactive)
same,GI50,U-251,34.7 µM (inactive)
same,GI50,UACC-257,18.2 µM (inactive)
same,GI50,UO-31,45.4 µM (inactive)
CC(=O)N1N(c2ccc([N+](=O)[O-])cc2)C(=O)C1(C)C,GI50,786-0,18.1 µM (inactive)
same,GI50,A498,37.9 µM (inactive)
same,GI50,A549,> 10 µM (inactive)
same,GI50,ACHN,19.7 µM (inactive)
same,GI50,BT-549,11.9 µM (inactive)
same,GI50,CCRF-CEM,7.08 µM (inactive)
same,GI50,COLO 205,15.5 µM (inactive)
same,GI50,DU-145,35.6 µM (inactive)
same,GI50,EKVX,17.3 µM (inactive)
same,GI50,HCC 2998,15.8 µM (inactive)
same,GI50,HCT-15,15.7 µM
same,GI50,HOP-62,19.3 µM (inactive)
same,GI50,HT-29,16.6 µM (inactive)
same,GI50,Hs-578T,33.5 µM (inactive)
same,GI50,IGROV-1,20.6 µM (inactive)
same,GI50,K562,17 µM (inactive)
same,GI50,KM12,16.7 µM (inactive)
same,GI50,LOX IMVI,11.6 µM (inactive)
same,GI50,M14,10.8 µM (inactive)
same,GI50,MCF7,23.6 µM (inactive)
same,GI50,MDA-MB-231,20.1 µM (inactive)
same,GI50,MDA-MB-435,20.6 µM (inactive)
same,GI50,MDA-N,30.5 µM (inactive)
same,GI50,MOLT-4,15.5 µM (inactive)
same,GI50,Malme-3M,19.6 µM (inactive)
same,GI50,NCI-H226,21.1 µM (inactive)
same,GI50,NCI-H23,16.7 µM (inactive)
same,GI50,NCI-H460,29.4 µM (inactive)
same,GI50,NCI-H522,12.1 µM (inactive)
same,GI50,NCI/ADR-RES,30.8 µM (inactive)
same,GI50,OVCAR-3,19.3 µM (inactive)
same,GI50,OVCAR-4,19.2 µM (inactive)
same,GI50,OVCAR-5,23.3 µM (inactive)
same,GI50,OVCAR-8,23.2 µM (inactive)
same,GI50,PC-3,15.7 µM (inactive)
same,GI50,RXF 393,18 µM (inactive)
same,GI50,SF-268,29.4 µM (inactive)
same,GI50,SF-295,31.4 µM (inactive)
same,GI50,SF-539,20.9 µM (inactive)
same,GI50,SK-MEL-28,17.9 µM (inactive)
same,GI50,SK-MEL-2,19.1 µM (inactive)
same,GI50,SK-MEL-5,16.9 µM (inactive)
same,GI50,SK-OV-3,48 µM (inactive)
same,GI50,SN12C,16.5 µM (inactive)
same,GI50,SNB-19,50.4 µM (inactive)
same,GI50,SNB-75,18.7 µM (inactive)
same,GI50,SW-620,13.4 µM (inactive)
same,GI50,T47D,39.3 µM (inactive)
same,GI50,TK-10,17.1 µM (inactive)
same,GI50,U-251,21.7 µM (inactive)
same,GI50,UACC-62,18.5 µM (inactive)
same,GI50,UO-31,17.1 µM (inactive)

# From ChEMBL document CHEMBL1201862, “PubChem BioAssay data set” (2004)
